According to PubChem BioAssay (NCI):
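Step 1: Grow cells in 96-well plates. Step 2: Expose to compound for 48 hours at 5 concentrations. Step 3: Interpolate endpoints linearly; if unreached, use highest concentration. GI50 marks 50% less growth. TGI is the concentration that stops growth completely.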

Assays:
Experiment in all cases: NCI-60 cell line screen, 48 h
K-562 leukemia = system: K-562 leukemia
NCI-H23 lung = system: NCI-H23 lung
OVCAR-8 ovarian = system: OVCAR-8 ovarian
SNB-75 CNS = system: SNB-75 CNS
U251 CNS = system: U251 CNS
HT29 colon = system: HT29 colon
UACC-257 melanoma = system: UACC-257 melanoma
EKVX NSCLC = system: EKVX NSCLC
RPMI-8226 leukemia = system: RPMI-8226 leukemia
HS 578T breast = system: HS 578T breast
HOP-92 NSCLC = system: HOP-92 NSCLC
PC-3 prostate = system: PC-3 prostate
HOP-62 NSCLC = system: HOP-62 NSCLC
SN12C renal = system: SN12C renal
ACHN renal = system: ACHN renal
M14 melanoma = system: M14 melanoma
SF-268 CNS = system: SF-268 CNS
IGROV1 ovarian = system: IGROV1 ovarian
KM12 colon = system: KM12 colon
NCI-H460 lung = system: NCI-H460 lung
UACC-62 melanoma = system: UACC-62 melanoma
A549 NSCLC = system: A549 NSCLC
NCI-H522 lung = system: NCI-H522 lung
MDA-MB-435 = system: MDA-MB-435
HCC-2998 colon = system: HCC-2998 colon
SK-MEL-28 melanoma = system: SK-MEL-28 melanoma
SK-MEL-5 melanoma = system: SK-MEL-5 melanoma
MOLT-4 leukemia = system: MOLT-4 leukemia
SK-OV-3 ovarian = system: SK-OV-3 ovarian
SW-620 colon = system: SW-620 colon
LOX IMVI melanoma = system: LOX IMVI melanoma
HCT-116 colon = system: HCT-116 colon
SF-295 CNS = system: SF-295 CNS
BT-549 breast = system: BT-549 breast
OVCAR-3 ovarian = system: OVCAR-3 ovarian
UO-31 renal = system: UO-31 renal
MDA-MB-231 breast = system: MDA-MB-231 breast
786-0 renal = system: 786-0 renal
MCF7 breast = system: MCF7 breast
SR leukemia = system: SR leukemia
CCRF-CEM leukemia = system: CCRF-CEM leukemia
OVCAR-4 ovarian = system: OVCAR-4 ovarian
SF-539 CNS = system: SF-539 CNS
NCI-H226 lung = system: NCI-H226 lung
COLO 205 colon = system: COLO 205 colon
A498 renal = system: A498 renal
OVCAR-5 ovarian = system: OVCAR-5 ovarian
DU-145 prostate = system: DU-145 prostate
SNB-19 CNS = system: SNB-19 CNS
RXF 393 renal = system: RXF 393 renal
HCT-15 colon = system: HCT-15 colon
TK-10 renal = system: TK-10 renal
MALME-3M melanoma = system: MALME-3M melanoma
NCI/ADR-RES ovarian = system: NCI/ADR-RES ovarian
CAKI-1 renal = system: CAKI-1 renal

## O=C(CNc1cccc(Cl)c1)Nn1c(-c2ccccc2)nc2ccccc2c1=O
K-562 leukemia
  TGI: 18.1 µM
NCI-H23 lung
  TGI: 8.11 µM
OVCAR-8 ovarian
  TGI: > 100 µM
SNB-75 CNS
  TGI: 13.8 µM
U251 CNS
  TGI: 3.41 µM
HT29 colon
  TGI: 24.9 µM
UACC-257 melanoma
  TGI: 42.2 µM
EKVX NSCLC
  TGI: 34.4 µM
RPMI-8226 leukemia
  TGI: > 100 µM
HS 578T breast
  TGI: 65 µM
HOP-92 NSCLC
  TGI: 7.45 µM
PC-3 prostate
  TGI: 22.9 µM
HOP-62 NSCLC
  TGI: 30.8 µM
SN12C renal
  TGI: 13.6 µM
ACHN renal
  TGI: 26.5 µM
M14 melanoma
  TGI: 6.19 µM
SF-268 CNS
  TGI: 22.9 µM
IGROV1 ovarian
  TGI: 17.9 µM
KM12 colon
  TGI: 24.9 µM
NCI-H460 lung
  TGI: 29.2 µM
UACC-62 melanoma
  TGI: 7.83 µM
A549 NSCLC
  TGI: 46.4 µM
NCI-H522 lung
  TGI: 2.98 µM
MDA-MB-435
  TGI: 15.2 µM
HCC-2998 colon
  TGI: 23.9 µM
SK-MEL-28 melanoma
  TGI: 29.9 µM
SK-MEL-5 melanoma
  TGI: 2.88 µM
MOLT-4 leukemia
  TGI: 8.62 µM
SK-OV-3 ovarian
  TGI: 23.7 µM
SW-620 colon
  TGI: 7.37 µM
LOX IMVI melanoma
  TGI: 2.74 µM
HCT-116 colon
  TGI: 4.07 µM
SF-295 CNS
  TGI: 28.5 µM
BT-549 breast
  TGI: 3.95 µM
OVCAR-3 ovarian
  TGI: 21.1 µM
UO-31 renal
  TGI: 31 µM
MDA-MB-231 breast
  TGI: 10.8 µM
786-0 renal
  TGI: 7.24 µM
MCF7 breast
  TGI: 4.32 µM
SR leukemia
  TGI: > 100 µM
CCRF-CEM leukemia
  TGI: 8.73 µM
OVCAR-4 ovarian
  TGI: 19.3 µM
SF-539 CNS
  TGI: 13.6 µM
NCI-H226 lung
  TGI: 35.3 µM
COLO 205 colon
  TGI: 20.2 µM
A498 renal
  TGI: 43.5 µM
OVCAR-5 ovarian
  TGI: 32.8 µM
DU-145 prostate
  TGI: 44.9 µM
SNB-19 CNS
  TGI: 31.6 µM

## COc1cc(-c2nc3ccc(C)cc3[nH]2)ccc1OCC(=O)N=Nc1c(O)[nH]c2ccc(Cl)cc12
RXF 393 renal
  GI50: 1.59 µM
  TGI: 3.04 µM
NCI-H23 lung
  GI50: 2.06 µM
  TGI: 6.18 µM
SNB-75 CNS
  GI50: 1.43 µM
  TGI: 3.72 µM
U251 CNS
  GI50: 0.418 µM
  TGI: 1.66 µM
EKVX NSCLC
  GI50: 3.85 µM
  TGI: > 100 µM
HOP-92 NSCLC
  GI50: 1.91 µM
  TGI: 7.05 µM
HOP-62 NSCLC
  GI50: 2.31 µM
  TGI: 7.02 µM
ACHN renal
  GI50: 3.64 µM
  TGI: > 100 µM
HCT-15 colon
  GI50: 2.13 µM
  TGI: > 100 µM
TK-10 renal
  GI50: 3.48 µM
  TGI: 9.5 µM
SK-OV-3 ovarian
  GI50: 3.44 µM
  TGI: > 100 µM
LOX IMVI melanoma
  GI50: 0.289 µM
  TGI: 1.01 µM
SF-295 CNS
  GI50: 1.8 µM
  TGI: 3.36 µM
BT-549 breast
  GI50: 2.97 µM
  TGI: > 100 µM
MDA-MB-231 breast
  GI50: 0.438 µM
  TGI: 1.67 µM
MALME-3M melanoma
  GI50: 1.64 µM
  TGI: 3.14 µM
OVCAR-4 ovarian
  GI50: 2.24 µM
  TGI: 4.83 µM
SF-539 CNS
  GI50: 1.63 µM
  TGI: 3.05 µM
NCI/ADR-RES ovarian
  GI50: > 100 µM
  TGI: > 100 µM
CAKI-1 renal
  GI50: 1.43 µM
  TGI: 2.93 µM
SNB-19 CNS
  GI50: 1.91 µM
  TGI: 5.57 µM
